The values that follow come from US20130344026A1, “Dimeric Smac Mimetics” (priority 2009, published 2013).

*1 amine or outer side, *2 acyl side, *3 side chain or, on linkers, in order; H or OH if unused. Where a SMILES comes first, the peptide text is derived from it. Bridges are numbered along the chain shown (N, C = ends). Roman numbers before positions name the chains, in order. [ ]: non-standard residue; d: D form. NH(CH2)8NH = C(CCCCN[*:2])CCCN[*:1]; Chg = N[C@H](C(=O)O)C1CCCCC1; Tle = CC(C)(C)[C@H](N)C(=O)O; NMeA = CN[C@@H](C)C(=O)O A value given as a limit tells only on which side of the number the result lay.

The first experiment relates to HCC461. The experiment in a line: cell viability assay in HCC461, compound alone. The format is cell-based. The following applies: HCC461, HCC461; Tables 6-9; read-out: IC50 (μM) in cell viability assay in HCC461.
What is called IC50 is the concentration at which inhibition is half-maximal. As for `CN[C@@H](C)C(=O)N[C@H](C(=O)N1C[C@@H](NC(=O)CC[C@@H](NC(=O)[C@H](NC(=O)[C@@H](C)NC)C(C)(C)C)C(=O)N[C@H]2CCCc3ccccc32)C[C@H]1C(=O)N[C@H](C)C(C)C)C(C)(C)C` [Compound 159], the IC50 was 0.221 µM.

Take `CCC[C@H](NC(=O)[C@H](C)NC)C(=O)N1C[C@@H](NC(=O)c2cccc(C(=O)N[C@H]3C[C@@H](C(=O)N[C@@H]4CCCc5ccccc54)N(C(=O)[C@@H](NC(=O)[C@H](C)NC)C(C)(C)C)C3)c2)C[C@H]1C(=O)N1CCCCC1` [Compound 141]: the IC50 stood at 0.109 µM.

Consider `CN[C@@H](C)C(=O)N[C@@H](CC#CC#CC[C@H](NC(=O)[C@H](C)NC)C(=O)N1CSC[C@H]1C(=O)N[C@@H]1CCCc2ccccc21)C(=O)N1CSC[C@H]1C(=O)N[C@@H]1CCCc2ccccc21` [Compound 88], for which the IC50 was found to be 0.188 µM.

`CN[C@@H](C)C(=O)N[C@@H](C)C(=O)N[C@H]1C[C@@H](C(=O)N[C@@H]2CCCc3ccccc32)N(C(=O)[C@@H](NC(=O)[C@H](C)NC)C(C)(C)C)C1` [Compound 146]: the half-maximal inhibitory concentration (IC50) is over 30 µM.

As for `CN[C@@H](C)C(=O)N[C@@H](CCCCNC(=O)c1cccc(C(=O)N[C@H]2C[C@@H](C(=O)N[C@@H]3CCCc4ccccc43)N(C(=O)[C@@H](NC(=O)[C@H](C)NC)C(C)(C)C)C2)c1)C(=O)N1CCC[C@H]1C(=O)N[C@@H]1CCCc2ccccc21` [Compound 134], the IC50 came to 0.058 µM.

The experiment is the same for the next values; noted with them: HCC461, HCC461; Tables 15-18; read-out: IC50 (uM) in cell viability assay in HCC461.
With `CN[C@@H](C)C(=O)N[C@@H](COCCCCCCOC[C@H](NC(=O)[C@H](C)NC)C(=O)N1CCCC1C(=O)N[C@@H]1CCCc2ccccc21)C(=O)N1CCCC1C(=O)N[C@@H]1CCCc2ccccc21` (stereo partly drawn) [Compound P2-20], the IC50 was determined as 0.043 µM.

Regarding `CN[C@@H](CO)C(=O)N[C@@H](CC#CC#CC[C@H](NC(=O)[C@H](CO)NC)C(=O)N1CCC[C@H]1C(=O)NC1c2ccccc2-c2ccccc21)C(=O)N1CCC[C@H]1C(=O)NC1c2ccccc2-c2ccccc21` [Compound P2-17], the IC50 was determined as 0.134 µM.

`CN[C@@H](C)C(=O)N[C@@H](CCCCCC[C@H](NC(=O)[C@H](C)NC)C(=O)N1CCC[C@H]1C(=O)NC1CCCC2CCCCC21)C(=O)N1CCC[C@H]1C(=O)NC1CCCC2CCCCC21` (stereo partly drawn) [Compound P2-23]: the IC50 turned out to be 0.055 µM.

Consider `CN[C@@H](C)C(=O)N[C@H](C(=O)N1CCC[C@H]1C(=O)N[C@H](CNC(=O)c1cccc(C(=O)NC[C@@H](NC(=O)[C@@H]2CCCN2C(=O)[C@@H](NC(=O)[C@H](C)NC)C(C)(C)C)c2ccccc2)c1)c1ccccc1)C(C)(C)C` [Compound P4-11], for which the IC50 stood at 0.068 µM.

In the case of `C#CC[C@H](NC(=O)[C@H](C)NC)C(=O)N1C[C@@H](n2cc(C[C@H](NC(=O)[C@H](C)NC)C(=O)N3C[C@@H](N=[N+]=[N-])C[C@H]3C(=O)N[C@@H]3CCCc4ccccc43)nn2)C[C@H]1C(=O)N[C@@H]1CCCc2ccccc21` [Compound H-2], the IC50 is 0.114 µM.

Take `CN[C@@H](C)C(=O)N[C@@H](CCNC(=O)c1cc(N)cc(C(=O)NCC[C@H](NC(=O)[C@H](C)NC)C(=O)N2CCC[C@H]2C(=O)N[C@@H]2CCCc3ccccc32)c1)C(=O)N1CCC[C@H]1C(=O)N[C@@H]1CCCc2ccccc21` [Compound P2-27]: the IC50 amounted to 0.165 µM.

As for `CN[C@@H](C)C(=O)N[C@@H](CCCCNC(=O)c1cc(C(=O)NCCCC[C@H](NC(=O)[C@H](C)NC)C(=O)N2CCC[C@H]2C(=O)NC(c2ccccc2)c2ccccc2)[nH]n1)C(=O)N1CCC[C@H]1C(=O)NC(c1ccccc1)c1ccccc1` [Compound P2-31], the IC50 was 0.268 µM.

With `CN[C@@H](C)C(=O)N[C@@H](CCCCNc1nc(NCCCC[C@H](NC(=O)[C@H](C)NC)C(=O)N2CCC[C@H]2C(=O)N[C@@H]2CCCc3ccccc32)nc(OC)n1)C(=O)N1CCC[C@H]1C(=O)N[C@@H]1CCCc2ccccc21` [Compound P2-32], the IC50 is 0.038 µM.

As to `CN[C@@H](C)C(=O)N[C@H](C(=O)N1CCC[C@H]1C(=O)N[C@H](C(=O)NCCCCCCCCNC(=O)[C@@H](NC(=O)[C@@H]1CCCN1C(=O)[C@@H](NC(=O)[C@H](C)NC)C(C)(C)C)C1CCCCC1)C1CCCCC1)C(C)(C)C` [Compound P4-7] (I: H-[NMeA][Tle]P[Chg] / II: H-[NMeA][Tle]P[Chg]; linker I:C-II:C via NH(CH2)8NH), the IC50 turned out to be 0.205 µM.

The experiment is the same for the next values; noted with them: HCC461, HCC461 cells, compound alone; read-out: IC50 (uM) in cell viability assay in HCC461.
With `CN[C@@H](C)C(=O)N[C@H](C(=O)N1C[C@@H](NC(=O)Cc2cccc(CC(=O)N[C@H]3C[C@@H](C(=O)N[C@@H]4CCCc5ccccc54)N(C(=O)[C@@H](NC(=O)[C@H](C)NC)C(C)(C)C)C3)c2)C[C@H]1C(=O)N[C@@H]1CCCc2ccccc21)C(C)(C)C` [Compound P3-19], the IC50 turned out to be 0.002 µM.

As for `CN[C@@H](C)C(=O)N[C@H](C(=O)N1C[C@@H](NC(=O)c2cc(N)cc(C(=O)N[C@H]3C[C@@H](C(=O)N[C@@H]4CCCc5ccccc54)N(C(=O)[C@@H](NC(=O)[C@H](C)NC)C4CCCCC4)C3)c2)C[C@H]1C(=O)N[C@@H]1CCCc2ccccc21)C1CCCCC1` [Compound P3-54], the IC50 was determined as 0.051 µM.

For the molecule `CN[C@@H](C)C(=O)N[C@H](C(=O)N1C[C@@H](NC(=O)c2ccc3cc(C(=O)N[C@H]4C[C@@H](C(=O)N[C@@H]5CCCc6ccccc65)N(C(=O)[C@@H](NC(=O)[C@H](C)NC)C(C)(C)C)C4)ccc3c2)C[C@H]1C(=O)N[C@@H]1CCCc2ccccc21)C(C)(C)C` [Compound P3-38], the half-inhibitory concentration (IC50) came to 0.007 µM.

Take `CN[C@@H](C)C(=O)N[C@H](C(=O)N1C[C@@H](NC(=O)C/C=C/CC(=O)N[C@H]2C[C@@H](C(=O)N[C@@H]3CCCc4ccccc43)N(C(=O)[C@@H](NC(=O)[C@H](C)NC)C(C)(C)C)C2)C[C@H]1C(=O)N[C@@H]1CCCc2ccccc21)C(C)(C)C` [Compound P3-32]: the IC50 is 0.006 µM.

With `CN[C@@H](C)C(=O)N[C@H](C(=O)N1C[C@@H](NC(=O)C[C@H](NC(C)=O)C(=O)N[C@H]2C[C@@H](C(=O)N[C@@H]3CCCc4ccccc43)N(C(=O)[C@@H](NC(=O)[C@H](C)NC)C(C)(C)C)C2)C[C@H]1C(=O)N[C@@H]1CCCc2ccccc21)C(C)(C)C` [Compound P3-67], the IC50 stood at 0.214 µM.

Consider `CN[C@@H](C)C(=O)N[C@H](C(=O)N1C[C@@H](n2cc(CNC(=O)c3cccc(C(=O)NCc4cn([C@H]5C[C@@H](C(=O)N[C@@H]6CCCc7ccccc76)N(C(=O)[C@@H](NC(=O)[C@H](C)NC)C(C)(C)C)C5)nn4)c3)nn2)C[C@H]1C(=O)N[C@@H]1CCCc2ccccc21)C(C)(C)C` [Compound P3-7], for which the IC50 was 0.007 µM.

With `CN[C@@H](C)C(=O)N[C@H](C(=O)N1C[C@@H](NC(=O)c2cccc(C(=O)N[C@H]3C[C@@H](C(=O)N[C@H](C)c4ccccc4)N(C(=O)[C@@H](NC(=O)[C@H](C)NC)C(C)(C)C)C3)c2)C[C@H]1C(=O)N[C@H](C)c1ccccc1)C(C)(C)C` [Compound P3-50], the IC50 came out at 0.063 µM.

With `CN[C@@H](C)C(=O)N[C@H](C(=O)N1C[C@@H](NC(=O)C[C@H](NC(=O)OCC2c3ccccc3-c3ccccc32)C(=O)N[C@H]2C[C@@H](C(=O)N[C@@H]3CCCc4ccccc43)N(C(=O)[C@@H](NC(=O)[C@H](C)NC)C(C)(C)C)C2)C[C@H]1C(=O)N[C@@H]1CCCc2ccccc21)C(C)(C)C` [Compound P3-66], the IC50 is 0.258 µM.

With `CN[C@@H](C)C(=O)N[C@H](C(=O)N1C[C@@H](NC(=O)c2cc(C(=O)N[C@H]3C[C@@H](C(=O)NC4c5ccccc5-c5ccccc54)N(C(=O)[C@@H](NC(=O)[C@H](C)NC)C(C)(C)C)C3)[nH]n2)C[C@H]1C(=O)NC1c2ccccc2-c2ccccc21)C(C)(C)C` [Compound P3-63], the IC50 was determined as 0.016 µM.

In the case of `CN[C@@H](C)C(=O)N[C@H](C(=O)N1C[C@@H](NC(=O)CC(C)(C)CC(=O)N[C@H]2C[C@@H](C(=O)N[C@@H]3CCCc4ccccc43)N(C(=O)[C@@H](NC(=O)[C@H](C)NC)C(C)(C)C)C2)C[C@H]1C(=O)N[C@@H]1CCCc2ccccc21)C(C)(C)C` [Compound P3-33], the IC50 was determined as 0.017 µM.

For `CN[C@@H](C)C(=O)N[C@H](C(=O)N1CCC[C@H]1C(=O)N[C@H](CNC(=O)[C@@H]1CC[C@](C)(C(=O)NC[C@@H](NC(=O)[C@@H]2CCCN2C(=O)[C@@H](NC(=O)[C@H](C)NC)C(C)(C)C)c2ccccc2)C1(C)C)c1ccccc1)C(C)(C)C` [Compound P3-48], the IC50 stood at 0.183 µM.

On to `CN[C@@H](C)C(=O)N[C@H](C(=O)N1C[C@@H](N2CC(CCCC3CN([C@H]4C[C@@H](C(=O)NC5c6ccccc6-c6ccccc65)N(C(=O)[C@@H](NC(=O)[C@H](C)NC)C(C)(C)C)C4)N=N3)N=N2)C[C@H]1C(=O)NC1c2ccccc2-c2ccccc21)C(C)(C)C` (stereo partly drawn) [Compound P3-6], for which the half-maximal inhibitory concentration (IC50) worked out at 0.007 µM.

Turning to `CN[C@@H](C)C(=O)N[C@H](C(=O)N1C[C@@H](Oc2cccc(O[C@H]3C[C@@H](C(=O)NC4CCCc5ccccc54)N(C(=O)[C@@H](NC(=O)[C@H](C)NC)C(C)(C)C)C3)c2)C[C@H]1C(=O)NC1CCCc2ccccc21)C(C)(C)C` (stereo partly drawn) [Compound P3-25], the IC50 came to 0.007 µM.

On to `CN[C@@H](C)C(=O)N[C@H](C(=O)N1C[C@@H](NC(=O)C2CCCC(C(=O)N[C@H]3C[C@@H](C(=O)N[C@H](C)C4CCCCC4)N(C(=O)[C@@H](NC(=O)[C@H](C)NC)C(C)(C)C)C3)C2)C[C@H]1C(=O)N[C@H](C)C1CCCCC1)C(C)(C)C` (stereo partly drawn) [Compound P3-46], for which the IC50 was determined as 0.024 µM.

Still in this experiment, the particulars now being: HCC461; Tables 6-9; read-out: IC50 (μM) in cell viability assay in HCC461.
Take `C[C@H](NC(=O)OCc1ccc([N+](=O)[O-])cc1)C(=O)NC(C(=O)N1C[C@@H](NC(=O)c2cccc(C(=O)N[C@H]3C[C@@H](C(=O)N[C@@H]4CCCc5ccccc54)N(C(=O)[C@@H](NC(=O)[C@H](C)NC(=O)OCc4ccc([N+](=O)[O-])cc4)C(C)(C)C)C3)c2)CC1C(=O)N[C@@H]1CCCc2ccccc21)C(C)(C)C` (stereo partly drawn) [Compound 111]: the IC50 was over 30 µM.

The same experiment, now with this note: HCC461; Tables 15-18; read-out: IC50 (uM) in cell viability assay in HCC461.
Take `CN[C@@H](C)C(=O)N[C@@H](CC#CC#CC[C@H](NC(=O)[C@H](C)NC)C(=O)N1C[C@@H](NC(C)c2ccccc2)C[C@H]1C(=O)N[C@@H]1CCCc2ccccc21)C(=O)N1C[C@@H](NC(=O)c2ccccc2)C[C@H]1C(=O)N[C@@H]1CCCc2ccccc21` (stereo partly drawn) [Compound P2-10]: the half-maximal inhibitory concentration (IC50) was found to be 0.109 µM.
